# Laboratory results published in PMC6382704, “LPM580098, a Novel Triple Reuptake Inhibitor of Serotonin, Noradrenaline, and Dopamine, Attenuates Neuropathic Pain” (Frontiers in Pharmacology, 2019).
# Experiments:
# [1] = molecular target: T1, NET (norepinephrine transporter) (Homo sapiens, UniProt P23975); experiment: radioligand displacement of [3H]nisoxetine, CHO cell membranes
# T1 construct: gene SLC6A2
# [2] = molecular target: T2, SERT (serotonin transporter) (Homo sapiens, UniProt P31645); experiment: radioligand displacement of [3H]imipramine, CHO cell membranes
# T2 construct: gene SLC6A4
# [3] = molecular target: T3, DAT (dopamine transporter) (Homo sapiens, UniProt Q01959); experiment: radioligand displacement of [3H]BTCP, CHO cell membranes
# T3 construct: gene SLC6A3
# T3 sequence (Q01959 whole entry): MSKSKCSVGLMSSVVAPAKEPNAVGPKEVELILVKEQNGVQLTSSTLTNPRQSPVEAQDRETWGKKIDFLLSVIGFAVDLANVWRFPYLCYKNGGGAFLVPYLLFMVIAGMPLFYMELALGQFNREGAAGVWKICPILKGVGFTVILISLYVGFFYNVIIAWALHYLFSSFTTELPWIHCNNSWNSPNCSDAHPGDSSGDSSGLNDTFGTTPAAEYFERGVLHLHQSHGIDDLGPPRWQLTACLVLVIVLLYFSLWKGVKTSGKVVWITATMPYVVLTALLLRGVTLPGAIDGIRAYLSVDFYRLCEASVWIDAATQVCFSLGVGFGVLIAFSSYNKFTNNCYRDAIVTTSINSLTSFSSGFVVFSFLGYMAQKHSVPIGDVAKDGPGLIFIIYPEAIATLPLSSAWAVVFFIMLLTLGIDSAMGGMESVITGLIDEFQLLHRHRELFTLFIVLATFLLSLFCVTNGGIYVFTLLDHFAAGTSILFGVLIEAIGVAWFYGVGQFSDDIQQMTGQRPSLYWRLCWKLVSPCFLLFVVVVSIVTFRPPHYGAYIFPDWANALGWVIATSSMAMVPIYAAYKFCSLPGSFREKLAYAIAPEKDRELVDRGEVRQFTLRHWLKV
# T1 sequence (P23975 whole entry): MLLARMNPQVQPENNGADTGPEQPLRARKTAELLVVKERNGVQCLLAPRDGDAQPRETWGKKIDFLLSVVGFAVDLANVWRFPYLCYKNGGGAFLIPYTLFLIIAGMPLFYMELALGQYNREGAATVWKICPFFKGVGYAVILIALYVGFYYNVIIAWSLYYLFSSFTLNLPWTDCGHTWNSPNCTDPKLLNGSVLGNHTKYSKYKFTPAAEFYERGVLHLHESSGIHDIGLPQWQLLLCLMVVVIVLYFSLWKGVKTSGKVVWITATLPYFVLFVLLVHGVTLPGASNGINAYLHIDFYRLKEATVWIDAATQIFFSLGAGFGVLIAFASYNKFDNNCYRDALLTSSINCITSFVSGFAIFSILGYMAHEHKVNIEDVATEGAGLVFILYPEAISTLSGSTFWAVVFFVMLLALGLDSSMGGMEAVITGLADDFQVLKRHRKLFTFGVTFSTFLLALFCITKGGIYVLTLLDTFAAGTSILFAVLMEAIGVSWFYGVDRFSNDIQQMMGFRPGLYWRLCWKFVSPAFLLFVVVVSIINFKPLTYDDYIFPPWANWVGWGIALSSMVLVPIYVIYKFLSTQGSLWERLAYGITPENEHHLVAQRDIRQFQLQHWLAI
# T2 sequence (P31645 whole entry): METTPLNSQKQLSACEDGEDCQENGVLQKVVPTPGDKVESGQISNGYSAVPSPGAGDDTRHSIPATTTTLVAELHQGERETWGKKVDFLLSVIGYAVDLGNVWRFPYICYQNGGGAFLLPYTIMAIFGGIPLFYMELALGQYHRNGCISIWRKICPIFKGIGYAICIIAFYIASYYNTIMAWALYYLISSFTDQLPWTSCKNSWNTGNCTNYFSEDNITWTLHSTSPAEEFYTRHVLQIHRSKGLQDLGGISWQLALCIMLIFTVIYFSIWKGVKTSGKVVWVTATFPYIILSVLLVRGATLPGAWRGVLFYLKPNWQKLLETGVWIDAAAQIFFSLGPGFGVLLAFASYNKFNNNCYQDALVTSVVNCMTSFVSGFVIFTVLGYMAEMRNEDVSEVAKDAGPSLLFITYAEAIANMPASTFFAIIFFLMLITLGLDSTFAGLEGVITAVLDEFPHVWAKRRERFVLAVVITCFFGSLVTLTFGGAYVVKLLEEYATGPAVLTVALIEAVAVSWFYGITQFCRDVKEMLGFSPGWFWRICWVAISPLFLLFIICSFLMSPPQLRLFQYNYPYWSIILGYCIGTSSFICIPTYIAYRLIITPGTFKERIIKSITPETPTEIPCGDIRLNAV
smiles,measurement,setting,value
"CN(C)CC(c1ccc(Oc2ccccc2)cc1)C1(O)CCCCC1 (stereo not drawn) [LPM580098, 1-[2-(dimethylamino)-1-(4-phenoxyphenyl)ethyl] cyclohexanol]",inhibition at 10 µM,[1],45%
same,inhibition at 10 µM,[2],90.3%
same,inhibition at 10 µM,[3],77.5%
